Measured values from patent publication US7005424B2, “Nucleic acid encoding an E1A gene product sensitizes HER-2/neu overexpressing cancer cells to chemotherapy” (priority 1996, dated 2006).
Starred links: 1 amine or outer side, 2 acyl side, 3 side chain; linkers in the order of their positions; H or OH if unused. Positions of bridges follow the written chain, without caps; N, C: chain ends. Non-standard residues stand in square brackets, D forms with d. Residues, ends and D or L forms follow the SMILES beside them. Chains are numbered I, II in the order given. Actinocin(9to1) = Cc1c2oc3c(C)ccc(C(=O)[*:1])c3nc-2c(C(=O)[*:2])c(N)c1=O; NMeV = CN[C@H](C(=O)O)C(C)C; Sar = CNCC(=O)O

Tests used:
[1] = in vivo; cited from earlier work
MDA-MB-435 cells = experiment: MTT assay, Ad.E1A and Taxol; format: cell-based; conditions: low neu expressing cells
Experimental: The percentage of cell growth was calculated by defining the absorption of cells not treated with taxol or E1A as 100%. Bars, SD.
FIG. 34. […] The percentage of cell growth was calculated by defining the absorption of cells not treated with taxol or E1A as 100%. Bars, SD.
Taxol was given from 0.1 μM to 100 μM (FIGS. 33B and 33D).

B.E1A1.Hy = experiment: MTT assay, taxol on rat fibroblasts with various neu and E1A expression; format: cell-based; conditions: taxol 0.1–10 μM; compared with B104-1-1, B.neo, B.E1A1.D1
Experimental: FIG. 30B. Effect of taxol (0.01–100 μM) on the cell growth of rat fibroblast with various HER-2/neu and E1A expression. […] Bars, SD.
In order to examine the effects of taxol on cell growth rat fibroblasts with various neu and E1A expression were grown in varying concentrations of taxol 0.01–100 μM. The cell lysates were subsequently run through 8% SDS-PAge and blotted with anti-p185 and anti-E1A antibodies (FIG. 30A). The effects on cell growth were measured using the MTT assay as described earlier.

Row | Structure (SMILES) | dose excreted or detected intact in the urine [1] | sensitivity to taxol alone (MDA-MB-435 cells) | inhibition of cell growth (MTT) (B.E1A1.Hy)
1 | Cc1c2oc3c(C)ccc(C(=O)N[C@@H]4C(=O)N[C@H](C(C)C)C(=O)N5CCC[C@H]5C(=O)N(C)CC(=O)N(C)[C@@H](C(C)C)C(=O)O[C@@H]4C)c3nc-2c(C(=O)N[C@@H]2C(=O)N[C@H](C(C)C)C(=O)N3CCC[C@H]3C(=O)N(C)CC(=O)N(C)[C@@H](C(C)C)C(=O)O[C@@H]2C)c(N)c1=O [Actinomycin D] (I: T[dV]P[Sar][NMeV] / II: T[dV]P[Sar][NMeV]; ester I:1-I:C, II:1-II:C; linker I:N-II:N via Actinocin(9to1)) | 10% | – | –
2 | CC[C@]1(O)C[C@@H]2CN(CCc3c([nH]c4ccccc34)[C@@](C(=O)OC)(c3cc4c(cc3OC)N(C)[C@H]3[C@@](O)(C(=O)OC)[C@H](OC(C)=O)[C@]5(CC)C=CCN6CC[C@]43[C@@H]65)C2)C1 [Vinblastine] | Approximately 15% | – | –
3 | CC(=O)O[C@H]1C(=O)[C@@]2(C)[C@H]([C@H](OC(=O)c3ccccc3)[C@]3(O)C[C@H](OC(=O)[C@H](O)[C@@H](NC(=O)c4ccccc4)c4ccccc4)C(C)=C1C3(C)C)[C@]1(OC(C)=O)CO[C@@H]1C[C@@H]2O [Taxol] | – | more sensitive to taxol alone | highest inhibition of cell growth
